From a melting point compilation (Tetko et al.; mined from patent text by program, amines drawn as free bases though some values may be those of a salt)

SMILES | melting point [°C]
O=C(Cc1ccc2c(c1)OCO2)N[C@H]1CC[C@H](CCN2CCN(c3nccc4c3OCC4)CC2)CC1 | 187
Cc1ccc(S(=O)(=O)NC(=O)N2C(=O)C(c3ccccc3)N2C(c2ccccc2)c2ccccc2)cc1 (stereo not drawn) | 154 to 156
CC(C)(C)C(=O)NCCCN(CCCNC(=O)C(C)(C)C)c1ccccc1 | 72
CCOC(=O)COc1ccc(Oc2nc(Cl)cc3ccccc23)cc1 | 97
CC(C)c1ccc(-n2nc(C(F)(F)F)cc2-c2ccc(S(C)(=O)=O)cc2)cc1Cl | 84 to 86
Cc1ccnc(Sc2nc(C)c(CC(=O)O)s2)c1C(=O)O | 208 to 210
CC12CC3CC(C)(C1)CC(C(=O)NCc1cccs1)(C3)C2 | 101 to 103
CCOP(=O)(Cc1ccc(NC(=O)/C=C/c2cn[nH]c2-c2ccc(F)cc2)cc1)OCC | 181 to 182
CCOC(=O)c1ncn2c1[C@@H]1CCN1C(=O)c1c-2ccc(F)c1F | 234 to 236
O=C(CCCCc1ccccc1)Nc1ccc(C(=O)NO)cc1 | 189 to 191
NC(=O)c1ccc(F)c2c1OCC=C2 | 152 to 154
FC(F)(F)c1ccc(CC[C@H]2CN(Cc3ccccc3)CCN2Cc2ccccc2)cc1 | 71 to 75
O=C(Oc1ccccc1)C1CCCc2ccc([N+](=O)[O-])cc21 (stereo not drawn) | 83 to 84
COc1ccccc1-n1c(-c2ccc(N(C)C)cc2)nnc1C(C)O (stereo not drawn) | 145
O=C1C(=Cc2ccc(F)cc2)C2C=CC1CC2 (stereo not drawn) | 85 to 86
CN(C)C1(c2ccccn2)CCC(NCCc2c[nH]c3ccccc23)CC1 (stereo not drawn) | 150 to 152
N#Cc1ccc2[nH]c3ccccc3c2c1 | 180 to 181
COc1ccc(S(=O)(=O)N2C(=O)C(c3cc(C)ccc3OC)(N3C[C@H](O)C[C@H]3C(=O)N(C)C)c3cc(Cl)ccc32)c(OC(F)(F)F)c1 (stereo partly drawn) | 192 to 193
Cc1ccccc1CSc1c(O)cc(-c2ccccc2)oc1=O | 176 to 178
COc1ccc(CCCC(=O)NC(NC(=NC#N)Nc2cccnc2C)C(C)(C)C)cc1 (stereo not drawn) | 65 to 68
COP(=O)(Cc1ccc2ccc(CP(=O)(OC)OC)cc2c1)OC | 87 to 88
CC(=O)c1cccc2c1ccn2C | 63 to 64

SMILES | melting point [°C]
O=C1c2ccccc2C(=O)N1C[C@@H]1CCC=CO1 | 87 to 88
NCC1Cc2cc(-c3cccc(F)c3)cc(F)c2O1 (stereo not drawn) | > 250
Cc1ncn(-c2nc(-c3ccc(Cl)cc3)c(CCC(=O)O)o2)c1C | 225 to 226
FC(F)(F)Oc1ccc(-n2ccc(CBr)n2)cc1 | 71 to 73
CS(=O)(=O)c1ccc(-c2cc(C(=O)CCCO)nn2-c2ccc(Br)cc2)cc1 | 136 to 137
CCn1c(C)nc2cc(C(F)(F)F)c(N(C)C)c(N)c21 | 141 to 142
CNC(=O)c1cc(C(=O)c2ccccc2)ccc1[N+](=O)[O-] | 138
COc1c2c(c(C3CCCCC3)c3c4c(ccc13)OCO4)CNC2=O | 244 to 246
O=C1Nc2ccc(Cl)cc2N2CCNCC12 (stereo not drawn) | 300 to 303
COC(=O)C1=C(C)NC(c2sc(C)nc2C)=NC1c1ccc(F)cc1Cl (stereo not drawn) | 116 to 118
CN(C)S(=O)(=O)c1c(S(N)(=O)=O)c(C(C)(C)C)cn1C | 98 to 101
CCCC1CCC(c2ccc(-c3cc(F)c(F)c(F)c3C=O)cc2)CC1 (stereo not drawn) | 62
CCc1cc(C(=O)OC)c(Nc2ccc(OC)cc2[N+](=O)[O-])s1 | 125 to 127
COc1ccc(C(=O)Cc2c(Cl)cncc2Cl)c2c1OC(C)(C)O2 | 133 to 134
CNC(=S)N1CC=C(C(C)(C)C)CC1 | 76 to 78
COC(=O)[C@H](CS)NC(=O)[C@@H](O)CO | 90 to 92
Cc1nc(C)c(-c2cccc(OC3SCC(O)C(O)C3O)c2)s1 (stereo not drawn) | 158 to 164
CN1CCN(c2ccc(C(=O)CCC(=O)N3CCC(c4ccc(Cl)cc4)CC3)cc2)CC1 | 152 to 153
O=C(O)CCCSc1ncnc2ncn(Cc3ccc4c(c3)Nc3nccnc3S4)c12 | 120 to 130
O=C(O)CC(=O)Nc1c(-c2ccccc2)c(=O)[nH]c2cc(Cl)ccc12 | 260
O=C1N(Cc2cccc(C(F)(F)F)n2)c2ccccc2C12COc1cc3c(cc12)OCCO3 (stereo not drawn) | 195 to 196
CCCCCCC1CCC(=O)N1c1ccc(Cl)c(NC2=NN(c3c(Cl)cc(Cl)cc3Cl)C(=O)C2)c1 (stereo not drawn) | 224 to 227

SMILES | melting point [°C]
N#Cc1cnc2c(oc3ccccc32)c1Nc1cccc(Br)c1 | 242 to 245
CCCc1nc2c(nc1O)CCCC2 | 131 to 133
CC(C)(O)C(=O)Nc1nc(-c2ccco2)c(C(=O)c2ccccc2)s1 | 153 to 154
CCC1Cc2cc(OC(C)(C)C(=O)O)c(Cl)c(Cl)c2C1=O (stereo not drawn) | 165 to 166
CN(C[C@H](O)[C@@H](O)[C@H](O)[C@H](O)CO)C(=O)CCCO | 78 to 79
CN(C)C1CCc2[nH]c3cc(O)ccc3c2C1 (stereo not drawn) | 286 to 288
CCOC(=O)Cc1cccc(-c2nc(COc3ccc(C=O)cc3OC)c(C)o2)c1 | 113 to 114
COc1cccc(C(=O)N(C(=O)OCCl)N(C(=O)c2cc(C)cc(C)c2)C(C)(C)C)c1C | 117 to 119
CCOP(=O)(Cc1ccc(NC(=O)/C=C/c2c(C)noc2-c2ccccc2)cc1)OCC | 155 to 156
CCn1ncc(C(=O)c2ccc(S(C)(=O)=O)cc2Cl)c1O | 172 to 175
Cc1ccccc1OCC(=O)Nc1ccc(C(=O)N2CCCCc3ccccc32)cc1 | 172 to 175
COC(=O)CC(c1ccccc1)N1C(=O)c2ccccc2C1=O (stereo not drawn) | 75 to 76
O=C(O)C1=CC2=C(C(=O)C1)N1C=CC=CC1=CS2 | 222
O=C(N[C@@H](CO)C(=O)NCCCOC1CCCCC1)c1ccc(C(=O)c2cccnc2)cc1 | 57 to 62
COc1cc(COc2cc(CCC(=O)O)n(-c3ccccc3)n2)ccc1OCc1nc(-c2ccccc2)oc1C | 157 to 158
CC(C)(C)c1cc(-n2nc3ccccc3n2)c(O)c(C(C)(C)C)c1 | 150 to 152
COc1cc2c(c(OC)c1OC)CCC(C(=O)Cc1cccc(F)c1)C2C#N (stereo not drawn) | 120 to 122
CCCOc1nc2cc(Cn3ccnc3)ccc2nc1C | 85.5
O=C(CCc1ccc(CNCc2ccccc2)cc1)Nc1ccc(-c2ccc(Cl)cc2)cc1 | 176
CCCCCCC1CC(=O)C2=C(C1)NC(=O)CC2 (stereo not drawn) | 142 to 144
CC(C)CCC(O)C(CC1CCCCC1)NC(=O)C(Cc1c[nH]cn1)N(C)C(=O)C(Cc1ccccc1)OC(=O)N1CCOCC1 (stereo not drawn) | 91 to 95
O=c1oc2ccccc2c(O)c1C1CC(c2ccc(Cc3ccc(-c4ccccc4)cc3)cc2)Cc2ccccc21 (stereo not drawn) | 118 to 121

The remaining lines, values ahead:

melting point [°C] | SMILES
70 to 82 | CC(C)(CO)c1ccc(C#N)cc1
213 to 214 | CC(C)S(=O)(=O)Nc1ccc(C(=O)Nc2ccc(Br)cc2)cc1
56 to 59 | c1ccc(Oc2cccnc2N2CCNCC2)cc1
218 to 225 | Cc1ccnc(C(=O)c2[nH]c3ccc(C(F)(F)F)cc3c2CC(=O)O)c1
171 to 172 | Nc1nc(Nc2ccccc2)sc1C(=O)c1ccsc1
143 to 144 | Cn1cc(S(=O)(=O)NC(C)(C)C)c(=O)n(C)c1=O
48 | CC(C)(C)c1ccc(CN2CCN(c3ccccc3)CC2)o1
244 to 247 | CCOc1cc(-c2ccc3c(c2)C=C(C(=O)Nc2ccc(CN(C)C4CCOCC4)cc2)CCS3(=O)=O)ccc1C#N
110 to 112 | CCOC(=O)O[C@H](c1ccc(S(C)(=O)=O)cc1)[C@@H](CF)NC(=O)C(Cl)Cl
149 to 150 | CC(=O)NC[C@H]1CN(c2ccc(N3CCC(n4nnnc4Cc4cccs4)CC3)c(F)c2)C(=O)O1
213 to 215 | CC(Cl)(Cl)C(NC(=O)c1cc(Cl)cc(Cl)c1)NC(=NS(=O)(=O)C(F)(F)F)Nc1cccnc1 (stereo not drawn)
113 to 115 | COC(=O)C1(CCCN2CCN(c3ccccc3)CC2)Oc2ccccc2OCC1O (stereo not drawn)
168 to 170 | CC(O)CNc1ccnc2cc(Cl)ccc12 (stereo not drawn)
91.2 to 92.6 | C=C(c1ccc(Br)cc1)c1ccc(OC)cc1
260 to 262 | NS(=O)(=O)c1ccc2c(c1)S(=O)(=O)NC1CCCN21 (stereo not drawn)
178 to 180 | CCCCNS(=O)(=O)CC(O)C(O)C(CC1CCCCC1)NC(=O)c1cnccn1 (stereo not drawn)

melting point [°C] | SMILES
88 | COc1ccc(Oc2ccc(C(=O)CCC#N)cc2)cc1
128 to 130 | COC(=O)c1[nH]c2ccc(OC)cc2c1SC
130 to 131 | CCCCc1cc2cn(C3CCCC3)c(=O)nc2o1
110 to 112 | C=Cc1ccc(-c2ncccc2S(=O)(=O)Nc2ncc(C)nc2OC)cc1
194 | CC(C#N)(Cn1c(C(F)(F)F)nc2ccccc21)NC(=O)c1ccc(OC(F)(F)F)cc1 (stereo not drawn)
262 to 264 | Cc1nn(C)c2c1c1oc(=O)c(Br)c(O)c1c(=O)n2Cc1ccc(F)cc1
117 to 120 | Nc1cccc(NC(=O)C(=O)N2CCC(Cc3ccc(F)cc3)CC2)c1
295 to 297 | Cc1cc(C(=N)NO)ccc1-c1cccc(-c2nc3cc(C(=N)NO)ccc3[nH]2)c1
154 to 156 | COc1cc2nc(C(C)(C)C)sc2cc1NC(=S)SCCC(=O)O
212 to 214 | Cn1c(C(F)(F)F)cc(=O)n(-c2cc(OCN3C(=O)CCC3=O)c(Cl)cc2F)c1=O
194 to 196 | N#CCNC(=O)C1(NC(=O)c2ccc(Cn3ccnc3)cc2)CCCCC1
210 to 211 | COc1ccc(NC(=O)c2cc([N+](=O)[O-])ccc2NC(=O)c2ccc(C(C)(C)C)cc2)cc1
152 to 154 | O=c1cc2c(nn1Cc1ccc(Cl)cc1)-c1cc(Br)sc1SCC2
229 to 230 | CS(=O)(=O)Nc1cc2oc(C#N)c(NC=O)c(=O)c2cc1Oc1ccccc1
202 to 204 | O=C(O)CCCCCN1C(=O)c2ccc(C(=O)O)cc2C1=O
144 to 146 | CC(C)(C)OC(=O)Nc1cc(N2CCC(OCCOC3CCCCO3)CC2)c(-c2ccc(F)cc2)cc1[N+](=O)[O-] (racemic)
